# Results reported in publication PMC6896740, “Safety, tolerability, pharmacokinetics, and pharmacodynamics of PF-06650833, a selective interleukin-1 receptor-associated kinase 4 (IRAK4) inhibitor, in single and multiple ascending dose randomized phase 1 studies in healthy subjects” (Arthritis Research & Therapy, 2019).
# How the values were obtained:
# [1] = test system: healthy adult subjects; test: Study 2 (MAD) safety and tolerability: TEAEs, urine crystals; format: in vivo
# Description: Study 2 (B7921002; NCT02485769) was a 14-day, phase 1, randomized, double-blind, sponsor-open, placebo-controlled, sequential group, MAD study in healthy adult subjects (Fig. 1b).
# Subjects were enrolled sequentially into seven cohorts. Within each cohort, eight subjects and two subjects were randomized to receive PF-06650833 and placebo, respectively. Doses for all cohorts were administered after a standard (not high-fat) meal. Multiple dosing regimens (once daily [QD] 24 h apart, twice daily [BID] 12 h apart, three times per day [TID] 8 h apart, and four times per day [QID] 6 h apart) were used to provide required total daily doses. In the final dosing scheme, multiple oral doses of PF-06650833 IR suspension formulations at 25, 100, 250, and 750 mg BID and 1000 mg QID were administered in cohorts 1–5. PF-06650833 IR 330 mg TID (cohort 6) and an MR tablet at a dose of 300 mg QD (cohort 7) were also evaluated (see Fig. 1b for final dosing scheme).
# Dose escalation (cohorts 1–5) or dose selection (cohorts 6–8) was based upon the evaluation of ≥ 7 days of safety and tolerability for all subjects and ≥ 12 h of PK data for at least six subjects receiving PF-06650833. To establish an MTD, dose escalation was to cease when the limit of tolerability was achieved.
# Safety assessments included incidence and severity of treatment-emergent AEs (TEAEs) and discontinuation due to TEAEs, incidence of treatment-emergent clinical laboratory abnormalities, and proportion of subjects meeting with pre-defined criteria for potential clinical concern in vital signs and electrocardiogram (ECG) parameters.
# The safety analysis set was defined as all subjects who received at least one dose of study treatment, and data were summarized descriptively. The PK concentration analysis set was defined as all enrolled, treated subjects who had at least one concentration in at least one treatment period. The PK parameter analysis set was defined as all enrolled, treated subjects who had at least one of the PK parameters of interest in at least one treatment period. The PD analysis set was defined as all enrolled subjects who received at least one dose of PF-06650833 and had at least one PD parameter. PK/PD data were summarized descriptively.
# PK parameters were calculated using non-compartmental analysis of concentration-time data. For study 1 only, data from cohort 1 (period 4 [IR 30 mg] versus period 5 [IR 30 mg + food]) and cohort 3 (period 2 [MR 30 mg] versus period 3 [MR 30 mg + food]) were used to estimate the effect of food intake. Cmax and AUC were calculated for each subject and treatment, with and without food, after which a within-subject difference could be found between fed (high-fat meal) and fasted doses. Analysis of covariance was used to model these within-subject differences and to calculate 95% confidence intervals (CIs) for the differences for each dose (IR 30 mg and MR 30 mg). For study 2 only, the amounts of PF-06650833 in urine and renal clearance were listed and summarized descriptively. As part of the routine safety laboratory monitoring, the presence of any atypical crystals in urine specimens was semi-quantitatively assessed microscopically by typical histopathologic methods and scored as numbers of crystals per high power field (hpf); higher abundance (moderate or many) was defined as ≥ 15/hpf. No formal interim analyses were conducted.
# [2] = test system: high-sensitivity C-reactive protein (hsCRP); test: Study 2 (MAD) serum hsCRP pharmacodynamics; format: in vivo, human
# From the text: (§1) The primary objective of study 2 was to determine the safety and tolerability of MAD of orally administered IR and MR formulations of PF-06650833 after a standard meal in healthy adult subjects. The secondary objective was to evaluate the plasma and urine PK profiles of PF-06650833 after repeat dosing. Exploratory objectives were to assess the effects of PF-06650833 on exploratory biomarkers of PD activity, including high-sensitivity C-reactive protein (hsCRP), and to evaluate cholesterol/hydroxycholesterol ratios as an endogenous marker for cytochrome P450 3A (CYP3A) induction or inhibition.
# (§2) For both studies, samples of blood (and urine in study 2) were taken for evaluation of PK/PD parameters (see Additional file 1: Supplemental Methods). PK samples were obtained at the nominal time relative to dosing (± 10%). Plasma and urine samples were analyzed using validated, sensitive, and specific liquid chromatography tandem mass spectrometric methods (at Pfizer Inc., Groton, CT, USA, for study 1 and at Worldwide Pharmacokinetics, Dynamics and Metabolism, Cambridge, MA, USA, for study 2). The lower limit of quantification for PF-06650833 in plasma was 0.0500 ng/mL. The lower limit of quantification for PF-06650833 in urine was 1.00 ng/mL. Serum samples were also analyzed for hsCRP, and plasma samples were analyzed for 4β-hydroxycholesterol and cholesterol.
# The safety analysis set was defined as all subjects who received at least one dose of study treatment, and data were summarized descriptively. The PK concentration analysis set was defined as all enrolled, treated subjects who had at least one concentration in at least one treatment period. […]
# (§3) 35 Plasma samples were analyzed using a validated, sensitive , and specific liquid […]
# 38 MA, USA for Study 2). The lower limit of quantification (LLOQ) for PF-06650833 in plasma
# 39 was 0.0500 ng/mL. Between-day assay accuracy values were also calculated (not shown). […]
# 44 cohorts. Urine samples were also analyzed using a validated, sensitive , and specific LC-MS […]
# [3] = test system: CYP3A; test: 4β-hydroxycholesterol/cholesterol ratio as endogenous marker of CYP3A; format: in vivo, human; conditions: MAD, doses up to 750 mg BID
# From the text: as §1
# as §2, with “PK samples were obtained at the nominal time relative to dosing (± 10%).” left out, “cholesterol. […]” for “cholesterol.”
# as §3
# [4] = parameters: method as in PMID 28498658; conditions: cited from earlier work
# [5] = IR 100 mg BID, 14 days, fed, 8 evaluable
compound,measurement,setting,value
"CC[C@@H]1[C@H](F)C(=O)N[C@@H]1COc1nccc2cc(C(N)=O)c(OC)cc12 [PF-06650833, 1-{[(2S,3S,4S)-3-Ethyl-4-fluoro-5-oxopyrrolidin-2-yl]methoxy}-7-methoxyisoquinoline-6-carboxamide]","Infections and infestations: subjects with AE, all causalities (treatment-related)",[1]; [5],1 (0)
same,"Upper respiratory tract infection: subjects with AE, all causalities (treatment-related)",[1]; [5],1 (0)
same,"Nasal congestion: subjects with AE, all causalities (treatment-related)","[1]; IR 330 mg TID, 14 days, fed, 8 evaluable",1 (1)
same,"Infections and infestations: subjects with AE, all causalities (treatment-related)","[1]; IR 750 mg BID, 14 days, fed, 8 evaluable",1 (1)
same,"Infections and infestations: subjects with AE, all causalities (treatment-related)","[1]; MR 300 mg QD, 14 days, fed, 8 evaluable",1 (0)
same,Serious AEs or deaths,[1]; all dose groups,No serious AEs or deaths
same,Severity of TEAEs,[1]; in vivo,mild or moderate
same,Maximum tolerated dose,"[1]; multiple doses up to IR 1000 mg QID, MR 300 mg QD",not established
same,Day by which maximal hsCRP reduction was reached,[2]; IR ≥ 250 mg BID and MR 300 mg QD,≤ 7 days
same,Change from baseline in serum hsCRP,"[2]; IR ≥ 250 mg BID and MR 300 mg QD, multiple dosing",sustained decrease
same,Reduction from baseline in hsCRP (geometric mean percentage),"[2]; day 14, highest dose groups",60–70%
same,CYP3A induction or inhibition based on cholesterol/hydroxycholesterol ratio,[3],no apparent trend for CYP3A induction or inhibition
same,Permeability,[4],high-permeability compound
